Experimental data reported in patent publication EP0671924B1, “DIGITALIS-LIKE COMPOUNDS” (YISSUM RESEARCH DEVELOPMENT COMPANY OF THE HEBREW …, priority 1992, dated 1994).

Tested on: digoxin antibody
Format: binding
Method: Measurement of digoxin-like immunoreactivity: Radioimmunoassay was performed with digoxin RIA kit obtained from Amersham International (Amersham, Buckinghamshire, England). Assay conditions were as recommended by the manufacturer.
Digoxin radioimmunoassay was performed using commercially available kit. The concentration of the partially purified lens DLC was determined from its ability to inhibit [^3H]-ouabain binding assuming identical affinity to the ouabain receptor as ouabain and MW of 372.

Structure (SMILES) | Cross reactivity [%] | Digoxin-like immunoreactive material
C[C@]12CC[C@H](O)C[C@H]1CC[C@@H]1[C@@H]2CC[C@]2(C)[C@@H](c3ccc(=O)oc3)CC[C@]12O [Bufalin] | 0.045 | 4.53 ng/mL
C[C@H]1O[C@@H](O[C@H]2[C@@H](O)C[C@H](O[C@H]3[C@@H](O)C[C@H](O[C@H]4CC[C@@]5(C)[C@H](CC[C@@H]6[C@@H]5C[C@@H](O)[C@]5(C)[C@@H](C7=CC(=O)OC7)CC[C@]65O)C4)O[C@@H]3C)O[C@@H]2C)C[C@H](O)[C@@H]1O [Digoxin] | 100 | 10,000 ng/ml
C[C@@H]1O[C@@H](O[C@H]2C[C@@H](O)[C@]3(CO)[C@H]4[C@H](O)C[C@]5(C)[C@@H](C6=CC(=O)OC6)CC[C@]5(O)[C@@H]4CC[C@]3(O)C2)[C@H](O)[C@H](O)[C@H]1O [Ouabain] | 0.012 | 1.21 ng/mL
